{
  "source": "patent US20150093451A1",
  "about": "“METHOD OF INCREASING ENERGY EXPENDITURE” (Reoxcyn Discoveries Group, Inc., priority 2007, published 2015)",
  "system": "NRF2",
  "test": "Western Blot validation of NRF2 nuclear accumulation and extra-nuclear protein phosphorylation",
  "type": "cell-based, human",
  "experimental": "8. A Western Blot analysis was done on extra-nuclear and intra-nuclear fractions, separated by differential centrifugation, of serum starved HMVEC-L cell cultures exposed to <1% of a composition of the invention compared with a positive hydrogen peroxide control to determine phosphorylation events (oxidant action) in the extra-nuclear fraction and NRF2 (antioxidant transcription) in the intra-nuclear fraction at 0, 30, 60, 90 and 120 min intervals.\nHMVEC-L were treated with 1% of a composition of the invention, nuclear extracts were separated through centrifugal differentiation from the extra-nuclear cytosol at 30, 60 and 120 min and subjected to Western Blot analysis for NRF2. In the Western blot experiment the extra-nuclear fraction was probed for phosphorylated proteins using a combination of anti-phospho serine, threonine and tyrosine antibodies. Virtually all cellular processes are regulated by posttranslational modifications and protein phosphorylation is a prevalent mechanism. Observable changes in protein phosphorylation can lead to a mechanistic understanding of the cellular processes perturbed by compositions of the invention and provide a defined endpoint to better define dose-dependent regulation of cell function by compositions of the invention in vitro, as well as provide a potential candidate molecular marker that may be used to provide in vitro-in vivo correlates. […]",
  "data": [
    {"smiles": "OO", "note": "[H2O2, Hydrogen peroxide]", "values": [
      {"measurement": "phosphorylation of extra-nuclear protein", "setting": "HMVEC-L extra-nuclear fraction, 1% composition, H2O2 positive control", "result": "marked increase in the phosphorylation"},
      {"measurement": "NRF2 levels in nuclear extracts", "setting": "HMVEC-L, 1% ASEA 30, 60, 120 min, H2O2 30 min", "result": "did not increase nuclear NRF2 levels"}
    ]}
  ]
}
